Entries after “also recorded” stand apart in the source; their conditions may differ.

The values below come from US20230210849A1, “CADHERIN-11 INHIBITOR FORMULATION AND ITS USES IN IMMUNOTHERAPY” (GEORGETOWN UNIVERSITY, priority 2020, published 2023).

Series [1] has as its system mT3 pancreatic cancer cells. Kind of series: s.c. mT3 pancreatic tumor growth in immunocompetent C57BL/6J transplant mice. It counts as in vivo, mouse. The following applies: for growth rate of pre-existing tumors: started at average tumor volume 100 mm^3 (FIG. 5H). An excerpt:
The experimental protocols were approved by the Georgetown University Animal Care and Use Committee. A pair of CDH11^−/− mice (Horikawa et al. Dev. Biol. 215: 182-189 (1999)) was kindly provided by Dr. Michael Brenner from Harvard University. A breeding pair of p48-Cre;LSL-Kras^G12D/+;LSL-Trp53^R172H/+ (KPC) mice (Hingorani et al. Cancer Cell 7: 469-483 (2005)) was provided by Dr. Anton Wellstein from Georgetown University. C57BL/6J mice (Cat #000664; Research Resource Identifier (RRID): IMSR_JAX:000664) and Rag1-mutant mice on C57BL/6J background (Cat #002216; RRID: IMSR_JAX:002216) were purchased from The Jackson Laboratory (Bar Harbor, Me.). In transplant experiments, 12-week old C57BL/6J and Rag1-mutant (on C57BL/6J background) mice were bilaterally subcutaneously (s.c.) injected with 5×10^5 mT3 pancreatic cancer cells, derived from a Kras^+/LSL-G12D;Trp53^+/LSL-R172H;Pdx-Cre mouse on C57BL/6 background. Both genders of mice were equally represented throughout all in vivo experiments. Mice were housed in specific pathogen free environment under standard conditions. See, Bandrowski et al. “The Resource Identification Initiative: A cultural shift in publishing,” F1000Res 4: 134 (2015), regarding Research Resource Identifiers (RRIDs),
(§1) Anti-PD1 (InVivoPlus anti-mouse PD1 (CD279), clone RMP1-14, Cat #BP0146, Bio X Cell (Lebanon, N.H.)) was administered intraperitoneally (i.p.) at 250 μg/mouse, 2× week. Gemcitabine (G-4177, LC Laboratories (Woburn, Mass.)) was administered i.p. at 100 mg/kg, 2× week. Treatment with CDH11 monoclonal antibody (mAb), SYN0012 (Roche (Basel, Switzerland)) was administered i.p. at 10 mg/kg, 2× week. Treatment with a small molecule CDH11-inhibitor, SD133, was administered i.p. at 150 mg/kg, 40 mg/kg or 10 mg/kg, 4× week. Stock solution of SD133 at 375 mg/mL was made in DMSO (Sigma (St. Louis, Mo.)), and further diluted in 30% PEG400 (Sigma).

The test system of series [2] is mT3 pancreatic cancer cells. Kind of series: s.c. mT3 tumor growth in immunocompromised Rag1-mutant mice. It counts as in vivo, mouse. Conditions: SD133 40 mg/kg, pre-existing tumors 100 mm^3, Rag1-mutant mice without mature T and B cells (FIG. 5I). The text has this: (§2) The experimental protocols were approved by the Georgetown University Animal Care and Use Committee. A pair of CDH11^−/− mice (Horikawa et al. Dev. Biol. 215: 182-189 (1999)) was kindly provided by Dr. Michael Brenner from Harvard University. A breeding pair of p48-Cre;LSL-Kras^G12D/+;LSL-Trp53^R172H/+ (KPC) mice (Hingorani et al. Cancer Cell 7: 469-483 (2005)) was provided by Dr. Anton Wellstein from Georgetown University. C57BL/6J mice (Cat #000664; Research Resource Identifier (RRID): IMSR_JAX:000664) and Rag1-mutant mice on C57BL/6J background (Cat #002216; RRID: IMSR_JAX:002216) were purchased from The Jackson Laboratory (Bar Harbor, Me.). In transplant experiments, 12-week old C57BL/6J and Rag1-mutant (on C57BL/6J background) mice were bilaterally subcutaneously (s.c.) injected with 5×10^5 mT3 pancreatic cancer cells, derived from a Kras^+/LSL-G12D;Trp53^+/LSL-R172H;Pdx-Cre mouse on C57BL/6 background. Both genders of mice were equally represented throughout all in vivo experiments. Mice were housed in specific pathogen free environment under standard conditions. See, Bandrowski et al. “The Resource Identification Initiative: A cultural shift in publishing,” F1000Res 4: 134 (2015), regarding Research Resource Identifiers (RRIDs), […]

For series [3], the target named is T1, CDH11 (Homo sapiens, UniProt P55287).
T1 sequence (P55287 54-796): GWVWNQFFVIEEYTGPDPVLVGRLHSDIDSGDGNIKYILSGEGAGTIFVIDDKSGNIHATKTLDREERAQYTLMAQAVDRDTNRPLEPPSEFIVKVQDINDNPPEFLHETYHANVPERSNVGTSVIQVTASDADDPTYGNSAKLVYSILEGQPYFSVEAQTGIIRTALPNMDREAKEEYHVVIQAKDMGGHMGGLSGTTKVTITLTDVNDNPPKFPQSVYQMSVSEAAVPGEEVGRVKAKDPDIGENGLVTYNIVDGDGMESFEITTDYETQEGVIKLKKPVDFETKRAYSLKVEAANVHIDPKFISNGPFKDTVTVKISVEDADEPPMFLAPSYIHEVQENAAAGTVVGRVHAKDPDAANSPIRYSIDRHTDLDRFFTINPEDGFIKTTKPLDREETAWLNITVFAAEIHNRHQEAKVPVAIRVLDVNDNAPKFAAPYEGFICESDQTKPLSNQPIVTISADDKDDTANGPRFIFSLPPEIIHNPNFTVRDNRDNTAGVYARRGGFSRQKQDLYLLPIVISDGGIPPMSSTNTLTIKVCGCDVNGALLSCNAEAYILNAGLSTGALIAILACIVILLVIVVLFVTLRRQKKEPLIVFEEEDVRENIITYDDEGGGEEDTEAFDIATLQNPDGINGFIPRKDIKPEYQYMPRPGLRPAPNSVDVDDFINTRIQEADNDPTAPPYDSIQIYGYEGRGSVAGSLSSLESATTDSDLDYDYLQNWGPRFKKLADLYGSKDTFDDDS
The following applies: in vitro; previously characterized and validated; cited from earlier work.

The nature of series [4]: Body weight / toxicity of treated mT3 tumor-bearing mice. It counts as in vivo, mouse. As for the experimental part: Body weight of C57BL/6J mice engrafted with syngeneic mT3 cells and treated with (A) vehicle (DMSO), (B) gemcitabine, (C) CDH11 mAb, (D) CDH11 mAb+ gemcitabine, (E) SD133 at 150 mg/kg for 2 weeks, (F) SD133 at 150 mg/kg for 2 weeks+ gemcitabine; (G) vehicle (10% DMSO in 30% PEG400), (H) SD133 at 150 mg/kg for 5 weeks, and mice with pre-existing mT3 tumors treated with (I) SD133 at 40 mg/kg, and (J) SD133 at 10 mg/kg. Mouse body weight was measured once or twice a week. Body weight of immunodeficient Rag1-mutant mice on C57BL/6J background with pre-existing syngeneic mT3 tumors treated with (K) vehicle (10% DMSO in 30% PEG400), and (L) SD133 at 40 mg/kg. Gender of mice is indicated in the graphs by commonly used gender symbols. The dose, route and treatment schedule are indicated in colored bars under the x-axes.
as §1

Series [5] has as its system KPC mice (PDAC). Put plainly: Survival of KPC transgenic PDAC mice under treatment. It counts as in vivo, mouse.
Description: as §2

The mark [6] stands for this setting: single agent, mT3-engrafted mice (FIG. 11).

As to `Oc1ccc(-c2cccnc2-c2ccccc2)cc1` [SD133], the “growth rate of pre-existing tumors” value in series [1] (SD133 10 mg/kg) and in series [1] (SD133 40 mg/kg) was “significantly reduced” in each case. For the same molecule, the tumor growth entry in series [1] (SD133 150 mg/kg continued throughout the study, 5 weeks (FIG. 5G)) is given as “reduced tumor growth was observed for the duration of the treatment”; in series [1] (SD133 i.p. 150 mg/kg 4x week for 2 weeks, beginning on day 2 after cancer cell injection (FIG. 5E)), “marked reduction in tumor growth”; in series [2], “did not suppress tumor growth”. Besides, in series [1] (SD133 for 2 weeks + gemcitabine i.p. 100 mg/kg 2x week (FIG. 5F)), the “combinatorial effect with gemcitabine on tumor growth” value is recorded as “not observed”. Moreover, the “tumor size versus control after treatment discontinued” value in series [1] (after the 2-week SD133 treatment was discontinued) is “remained significantly smaller than tumors in control animals”. In addition, the “efficacy as a monotherapy (summary)” value in series [1] (immunocompetent mT3 model, summary statement) is on record as “remarkably effective”. For the same molecule, in series [3], the “affinity of binding to the CDH11 binding pocket” value was “low μM”. Further, the mouse body weight entry in series [4] (in combination with gemcitabine, mT3-engrafted C57BL/6J mice (FIG. 11)) is recorded as “does not affect mouse body weight”; in series [4] (setting [6]) it was “no decrease in animal weight; also recorded: does not affect mouse body weight”. In addition, the toxicity entry in series [4] (mouse, in vivo) was “no sign of toxicity”.
In the case of `Nc1ccn([C@@H]2O[C@H](CO)[C@@H](O)C2(F)F)c(=O)n1` [gemcitabine, reference compound], the tumor growth result in series [1] (monotherapy, gemcitabine i.p. 100 mg/kg 2x week or CDH11 mAb i.p. 10 mg/kg 2x week (FIG. 5A, 5B)) is reported as “did not reduce tumor growth”. Also, in series [5] (KPC/CDH11-deficient mice, gemcitabine 6 weeks starting at 100 days of age), the “first PDAC-related death” value was found to be 165 days. Further, the “overall survival versus untreated KPC/CDH11-deficient group” value in series [5] (gemcitabine 6 weeks starting at 100 days of age (FIG. 4B)) is “improved significantly”. The mouse body weight entry in series [4] (setting [6]) was “does not affect mouse body weight”.
